Assay: Peptide stability in HEK293T cell lysate
Assay type: in vitro ADME
Conditions: human, HEK293T lysate 1 mg/ml in PBS, 1 mM peptide, 37 °C, HPLC/LCMS peak area normalized to ethylparaben standard, read-out: peptide still intact after 24 hours in cell lysate
Text: Stapled peptides have been reported to be able to pass cell membranes with high efficiency, but their cell permeability is dependent on the peptide sequence and the position of the staple.[41] To evaluate whether the α3-helix derived peptide is cell permeable, we used azidolysine derivatized variants of P-6 and P-6S (P-6-Az and P-6S-Az) and used them in the NanoClick assay.[60] In this assay cells are transfected to express a NanoLuc–HaloTag fusion protein followed by treatment with a dibenzoazacyclooctyne reagent modified with a chloroalkane (DIBAC–CA) that covalently modifies the HaloTag protein. When an azide modified NanoBRET acceptor (NB618-Az) is added, it will undergo strain promoted azide–alkyne cycloaddition (SPAAC) with the DIBAC–CA placing the acceptor in the proximity of the NanoLuc protein leading to an observable BRET signal. […] The SPAAC reaction only happens if the peptide is able to reach the cytosol and the assay therefore provides a read-out of cell-permeability. […]
Peptide stability was measured in HEK293T lysates. […]
The samples were chilled on ice for 15 min and insoluble material was removed by centrifugation (16873 x g, 4 °C, 10 min). The supernatant was analysed by LCMS with a gradient of H2O (0.1% TFA) and ACN (0.1% TFA) from 5 to 95 % over 20 min. […]

Row | Compound | remaining at 24 h, 1 mM [%]
1 | CC(=O)N[C@@H](CC(N)=O)C(=O)N[C@@H](CCC(N)=O)C(=O)N[C@@]1(C)CCCCCCCC[C@@](C)(C(=O)N[C@@H](C)C(=O)N[C@@H](CC(C)C)C(=O)N[C@@H](CCC(N)=O)C(=O)N[C@@H](C)C(=O)N[C@H](C(=O)N[C@@H](CC(N)=O)C(N)=O)C(C)C)NC(=O)[C@H](CCC(N)=O)NC(=O)[C@H](C)NC(=O)[C@H](CCCNC(=N)N)NC1=O [Peptide P-2] | 12
2 | CC(=O)N[C@@H](CC(N)=O)C(=O)N[C@@H](CCC(N)=O)C(=O)N[C@@]1(C)CCCC=CCCCC2(CCCC=CCCC[C@](C)(C(=O)N[C@H](C(=O)N[C@@H](CC(N)=O)C(N)=O)C(C)C)NC(=O)[C@H](CCC(N)=O)NC(=O)[C@H](CC(C)C)NC(=O)[C@H](C)NC2=O)NC(=O)[C@H](CCC(N)=O)NC(=O)[C@H](C)NC(=O)[C@H](CCCNC(=N)N)NC1=O (some centres unmarked) [Peptide P-6] | 43

— article PMC10411625, “Rationally designed stapled peptides allosterically inhibit PTBP1–RNA-binding” (Chemical Science, 2023)
